In data set [1] the test system is Oryctolagus cuniculus. The experiment in a line: Compound was evaluated for the intraocular pressure (IOP) in normal rabbits following topical dosing after 70 min. Type of data set: functional, Eye.
Data set [2] relates to Oryctolagus cuniculus. Kind of data set: Compound was evaluated for the intraocular pressure (IOP) in normal rabbits following topical dosing after 110 min. Type of data set: functional, Eye.
Data set [3] deals with Oryctolagus cuniculus. Kind of data set: Compound was evaluated for the intraocular pressure (IOP) in normal rabbits following topical dosing after 10 min. Type of data set: functional, Eye.
The test system of data set [4] is Oryctolagus cuniculus. The experiment in a line: Compound was evaluated for the intraocular pressure (IOP) in normal rabbits following topical dosing after 60 min. Type of data set: functional, Eye.
In data set [5] the test system is Oryctolagus cuniculus. The experiment in a line: Compound was evaluated for the intraocular pressure (IOP) in normal rabbits following topical dosing after 90 min. It is filed as functional, Eye.
The test system of data set [6] is Oryctolagus cuniculus. Kind of data set: Compound was evaluated for the intraocular pressure (IOP) in normal rabbits following topical dosing after 100 min. Type of data set: functional, Eye.
Data set [7] concerns Oryctolagus cuniculus. The experiment in a line: Compound was evaluated for the intraocular pressure (IOP) in normal rabbits following topical dosing after 80 min. Type of data set: functional, Eye.
For data set [8], the system named is Oryctolagus cuniculus. Kind of data set: Compound was evaluated for the intraocular pressure (IOP) in normal rabbits following topical dosing after 30 min. It is filed as functional, Eye.
For data set [9], the target named is Carbonic anhydrase.
For data set [10], the system named is Oryctolagus cuniculus. Kind of data set: Compound was evaluated for the intraocular pressure (IOP) in normal rabbits following topical dosing after 50 min. Type of data set: functional, Eye.
For data set [11], the system named is Oryctolagus cuniculus. Kind of data set: Compound was evaluated for the intraocular pressure (IOP) in normal rabbits following topical dosing after 20 min. It is filed as functional, Eye.
Data set [12] has as its system Oryctolagus cuniculus. The experiment in a line: Compound was evaluated for the intraocular pressure (IOP) in normal rabbits following topical dosing after 120 min. It is filed as functional, Eye.
The subject of data set [13] is Oryctolagus cuniculus. The experiment in a line: Compound was evaluated for the intraocular pressure (IOP) in normal rabbits following topical dosing after 40 min. Type of data set: functional, Eye.
Data set [14] relates to Oryctolagus cuniculus. Kind of data set: Compound was evaluated for the intraocular pressure (IOP) in normal rabbits following topical dosing after 180 min. It is filed as functional, Eye.
Data set [15] has as its system Oryctolagus cuniculus. Kind of data set: Compound was evaluated for the intraocular pressure (IOP) in normal rabbits following topical dosing after 140 min. Type of data set: functional, Eye.
Data set [16] concerns Oryctolagus cuniculus. Kind of data set: Compound was evaluated for the intraocular pressure (IOP) in normal rabbits following topical dosing after 160 min. It is filed as functional, Eye.
Data set [17] in a line: physchem.
Description: Compound was evaluated for pKa
For data set [18] the following is noted: buffer, pH 7.2.
Description: Solubility, pH 7.2 phosphate buffer at 32 degree C
The nature of data set [19]: physchem. As to conditions: octanol/pH 7.2 phosphate buffer.
Description: Compound was evaluated for Octanol/pH 7.2 phosphate buffer distribution coefficient
Data set [20] concerns the target Carbonic anhydrase. Kind of data set: Compound was evaluated for the inhibition of Carbonic anhydrase (Competitive). Type of data set: protein assay.

Consider `CN(O)S(=O)(=O)c1ccc([N+](=O)[O-])cc1`, for which the IOP in the data set with Oryctolagus cuniculus [1] is -2 mmHg; with Oryctolagus cuniculus [2] it was -0.33 mmHg; in the data set with Oryctolagus cuniculus [3], 0.33 mmHg; with Oryctolagus cuniculus [4] it was -1.67 mmHg; in the data set with Oryctolagus cuniculus [5] it was 0.2 mmHg; in the data set with Oryctolagus cuniculus [6], -0.5 mmHg. In addition, the IOP in the data set with Oryctolagus cuniculus [7] is -1.67 mmHg; with Oryctolagus cuniculus [8] it was -0.67 mmHg; in the data set on Oryctolagus cuniculus [10] it was -1.83 mmHg; in the data set on Oryctolagus cuniculus [11], -0.33 mmHg; in the data set on Oryctolagus cuniculus [12], -1 mmHg; in the data set with Oryctolagus cuniculus [13], -1.67 mmHg. The Ki (as a rule, the equilibrium dissociation constant of an inhibitor or competing ligand from its target) at Carbonic anhydrase [9] worked out at 0.044 µM.

`CNS(=O)(=O)c1ccc([N+](=O)[O-])cc1` showed a Ki on Carbonic anhydrase [9] of 0.146 µM.

Consider `CN(O)S(=O)(=O)c1ccc(Cl)cc1`, for which the IOP with Oryctolagus cuniculus [4] is reported as -1.25 mmHg; in the data set with Oryctolagus cuniculus [6], 0.67 mmHg; in the data set on Oryctolagus cuniculus [7], 0.17 mmHg; in the data set with Oryctolagus cuniculus [14], -0.25 mmHg; with Oryctolagus cuniculus [15] it was -0.33 mmHg; in the data set on Oryctolagus cuniculus [11], 0.17 mmHg. Moreover, the IOP in the data set with Oryctolagus cuniculus [16] is on record as -0.25 mmHg; with Oryctolagus cuniculus [12], 0.33 mmHg; in the data set on Oryctolagus cuniculus [13] it was 1 mmHg. Further, the Ki on Carbonic anhydrase [9] was 0.107 µM.

Turning to `CNS(=O)(=O)c1ccc(Cl)cc1`, the Papp (in general, a coefficient for how fast a substance crosses the barrier) came out at 65.1 ×10⁻⁶ cm/s. In “physchem [17]”, the pKa (commonly the negative logarithm of the acid dissociation constant) is 11. Besides, the Ki at Carbonic anhydrase [9] turned out to be 0.584 µM. For the same compound, the Solubility in data set [18] is listed as 0.0208 M l-1. In addition, in the data set “physchem [19]”, the logD (usually the decadic logarithm of the distribution of all forms, ionised or not, between an organic phase and buffer at a given pH) was 1.92.

With `NS(=O)(=O)c1ccc(Cl)cc1` [P-CHLOROBENZENESULFONAMIDE], the Papp was found to be 54.7 ×10⁻⁶ cm/s. Besides, in “physchem [17]”, the pKa worked out at 9.95. Moreover, in [18], the Solubility came out at 0.0223 M l-1. The compound further registered a logD in the data set “physchem [19]” of 1.24.

In turn, `CNS(=O)(=O)c1nnc(NC(C)=O)s1` showed a Papp of 2.26 ×10⁻⁶ cm/s. In addition, the Ki on Carbonic anhydrase [20] came to 0.258 µM. This compound also displayed a pKa in the data set “physchem [17]” of 7.52. Besides, in [18], the Solubility is listed as 0.00144 M l-1. This compound registered a logD in “physchem [19]” of 0.32.
